± gives the expanded uncertainty stated by the source.
Test: cn = amount concentration of the nth substance listed, in mol/dm3
Details: 101 kPa, Liquid; for viscosity: Capillary tube (Ostwald / Ubbelohde) method; for mass density: Pycnometric method; for binary diffusion coefficient: Taylor dispersion method

OC[C@H]1O[C@@H]2O[C@H]3[C@H](O)[C@@H](O)[C@@H](O[C@H]4[C@H](O)[C@@H](O)[C@@H](O[C@H]5[C@H](O)[C@@H](O)[C@@H](O[C@H]6[C@H](O)[C@@H](O)[C@@H](O[C@H]7[C@H](O)[C@@H](O)[C@@H](O[C@H]8[C@H](O)[C@@H](O)[C@@H](O[C@H]9[C@H](O)[C@@H](O)[C@@H](O[C@H]1[C@H](O)[C@H]2O)O[C@@H]9CO)O[C@@H]8CO)O[C@@H]7CO)O[C@@H]6CO)O[C@@H]5CO)O[C@@H]4CO)O[C@@H]3CO [γ-cyclodextrin] + O
Details	binary diffusion coefficient, 298.15 K [m2/s]	binary diffusion coefficient, 310.15 K [m2/s]	mass density, 298.15 K [kg/m3]	mass density, 310.15 K [kg/m3]	viscosity, 298.15 K [mPa·s]	viscosity, 310.15 K [mPa·s]
c1 = 0.00186	–	–	896.2 ± 0.6	697 ± 0.54	0.9975 ± 0.0079	0.9938 ± 0.0079
c1 = 0.002	3.57e-10	4.8e-10	–	–	–	–
c1 = 0.004979	–	–	906.1 ± 0.6	708.2 ± 0.55	0.999 ± 0.0079	0.9949 ± 0.0079
c1 = 0.005	3.55e-10	4.7e-10	–	–	–	–
c1 = 0.007923	–	–	919.2 ± 0.61	717.2 ± 0.57	1.001 ± 0.008	0.997 ± 0.0079
c1 = 0.008	3.53e-10	4.61e-10	–	–	–	–
c1 = 0.009981	–	–	927 ± 0.62	723.4 ± 0.56	1.002 ± 0.008	0.9984 ± 0.008
c1 = 0.01	3.52e-10	4.53e-10	–	–	–	–

Source: the NIST ThermoML archive (doi:10.1021/je700598v)
